Data published in PubChem BioAssay (NCI).
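Exposure lasted 48 hours, with cells grown in 96-well plates and compounds tested at five concentrations. TGI: concentration producing complete growth inhibition.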

How the values were obtained:
Assay in all cases: growth of human tumour cells (NCI), 48 h
ACHN renal = test system: ACHN renal
NCI-H460 lung = test system: NCI-H460 lung
CCRF-CEM leukemia = test system: CCRF-CEM leukemia
U251 CNS = test system: U251 CNS
RXF 393 renal = test system: RXF 393 renal
KM20L2 colon = test system: KM20L2 colon
SK-MEL-28 melanoma = test system: SK-MEL-28 melanoma
HCC-2998 colon = test system: HCC-2998 colon
IGROV1 ovarian = test system: IGROV1 ovarian
SN12C renal = test system: SN12C renal
M19-MEL melanoma = test system: M19-MEL melanoma
NCI-H23 lung = test system: NCI-H23 lung
SW-620 colon = test system: SW-620 colon
UO-31 renal = test system: UO-31 renal
HOP-62 NSCLC = test system: HOP-62 NSCLC
SK-OV-3 ovarian = test system: SK-OV-3 ovarian
EKVX NSCLC = test system: EKVX NSCLC
SNB-19 CNS = test system: SNB-19 CNS
DMS 273 small cell lung = test system: DMS 273 small cell lung
TK-10 renal = test system: TK-10 renal
SF-295 CNS = test system: SF-295 CNS
HCT-15 colon = test system: HCT-15 colon
786-0 renal = test system: 786-0 renal
SK-MEL-2 melanoma = test system: SK-MEL-2 melanoma
M14 melanoma = test system: M14 melanoma
OVCAR-8 ovarian = test system: OVCAR-8 ovarian
OVCAR-5 ovarian = test system: OVCAR-5 ovarian
MOLT-4 leukemia = test system: MOLT-4 leukemia
K-562 leukemia = test system: K-562 leukemia
CAKI-1 renal = test system: CAKI-1 renal
HOP-92 NSCLC = test system: HOP-92 NSCLC
COLO 205 colon = test system: COLO 205 colon
LOX IMVI melanoma = test system: LOX IMVI melanoma
NCI-H522 lung = test system: NCI-H522 lung
A498 renal = test system: A498 renal
A549 NSCLC = test system: A549 NSCLC
OVCAR-3 ovarian = test system: OVCAR-3 ovarian
HCT-116 colon = test system: HCT-116 colon
LXFL 529 NSCLC = test system: LXFL 529 NSCLC
SK-MEL-5 melanoma = test system: SK-MEL-5 melanoma
HT29 colon = test system: HT29 colon
UACC-257 melanoma = test system: UACC-257 melanoma
RPMI-8226 leukemia = test system: RPMI-8226 leukemia
SF-268 CNS = test system: SF-268 CNS
NCI-H226 lung = test system: NCI-H226 lung
SF-539 CNS = test system: SF-539 CNS
HL-60(TB) leukemia = test system: HL-60(TB) leukemia
OVCAR-4 ovarian = test system: OVCAR-4 ovarian
KM12 colon = test system: KM12 colon
SNB-75 CNS = test system: SNB-75 CNS
UACC-62 melanoma = test system: UACC-62 melanoma
HOP-18 NSCLC = test system: HOP-18 NSCLC
SNB-78 CNS = test system: SNB-78 CNS
DMS 114 small cell lung = test system: DMS 114 small cell lung
MALME-3M melanoma = test system: MALME-3M melanoma
DLD-1 colon = test system: DLD-1 colon
SR leukemia = test system: SR leukemia

For `O=C1/C(=N\O)C2CCC1C2` (stereo unspecified), the TGI (ACHN renal) was > 100 µM, the TGI (NCI-H460 lung) was > 100 µM and the TGI (CCRF-CEM leukemia) was > 100 µM. For the same compound, the TGI (U251 CNS) was > 100 µM, the TGI (RXF 393 renal) was > 100 µM and the TGI (KM20L2 colon) was > 100 µM. The TGI (SK-MEL-28 melanoma) was > 100 µM, the TGI (HCC-2998 colon) was > 100 µM and the TGI (IGROV1 ovarian) was > 100 µM. For the same compound, the TGI (SN12C renal) was > 100 µM, the TGI (M19-MEL melanoma) was > 100 µM and the TGI (NCI-H23 lung) was > 100 µM. The TGI (SW-620 colon) was > 100 µM, the TGI (UO-31 renal) was > 100 µM and the TGI (HOP-62 NSCLC) was > 100 µM. The TGI (SK-OV-3 ovarian) was > 100 µM, the TGI (EKVX NSCLC) was > 100 µM and the TGI (SNB-19 CNS) was > 100 µM. For the same compound, the TGI (DMS 273 small cell lung) was > 100 µM, the TGI (TK-10 renal) was > 100 µM and the TGI (SF-295 CNS) was > 100 µM. For the same compound, the TGI (HCT-15 colon) was > 100 µM, the TGI (786-0 renal) was > 100 µM and the TGI (SK-MEL-2 melanoma) was > 100 µM. For the same compound, the TGI (M14 melanoma) was > 100 µM, the TGI (OVCAR-8 ovarian) was > 100 µM and the TGI (OVCAR-5 ovarian) was > 100 µM. For the same compound, the TGI (MOLT-4 leukemia) was > 100 µM, the TGI (K-562 leukemia) was > 100 µM and the TGI (CAKI-1 renal) was > 100 µM. The TGI (HOP-92 NSCLC) was > 100 µM, the TGI (COLO 205 colon) was > 100 µM and the TGI (LOX IMVI melanoma) was > 100 µM. The TGI (NCI-H522 lung) was > 100 µM, the TGI (A498 renal) was > 100 µM and the TGI (A549 NSCLC) was > 100 µM. For the same compound, the TGI (OVCAR-3 ovarian) was > 100 µM, the TGI (HCT-116 colon) was > 100 µM and the TGI (LXFL 529 NSCLC) was > 100 µM. The TGI (SK-MEL-5 melanoma) was > 100 µM, the TGI (HT29 colon) was > 100 µM and the TGI (UACC-257 melanoma) was > 100 µM. The TGI (RPMI-8226 leukemia) was > 100 µM, the TGI (SF-268 CNS) was > 100 µM and the TGI (NCI-H226 lung) was > 100 µM. The TGI (SF-539 CNS) was > 100 µM, the TGI (HL-60(TB) leukemia) was > 100 µM and the TGI (OVCAR-4 ovarian) was > 100 µM. The TGI (KM12 colon) was > 100 µM, the TGI (SNB-75 CNS) was > 100 µM and the TGI (UACC-62 melanoma) was > 100 µM. For the same compound, the TGI (HOP-18 NSCLC) was > 100 µM, the TGI (SNB-78 CNS) was > 100 µM and the TGI (DMS 114 small cell lung) was > 100 µM. For the same compound, the TGI (MALME-3M melanoma) was > 100 µM.
`Cc1ccccc1NC(=O)c1cc2cc(N=Nc3ccccc3C(=O)O)ccc2oc1=O` was tested, and the TGI (ACHN renal) was > 100 µM, the TGI (NCI-H460 lung) was 60 µM and the TGI (CCRF-CEM leukemia) was 80.4 µM. The TGI (U251 CNS) was 51.5 µM, the TGI (DLD-1 colon) was 54.3 µM and the TGI (RXF 393 renal) was 33.9 µM. The TGI (KM20L2 colon) was 32.1 µM, the TGI (SK-MEL-28 melanoma) was 41.2 µM and the TGI (IGROV1 ovarian) was 65.2 µM. For the same compound, the TGI (SN12C renal) was 53.3 µM, the TGI (M19-MEL melanoma) was 27.3 µM and the TGI (NCI-H23 lung) was 12.2 µM. For the same compound, the TGI (SW-620 colon) was > 100 µM, the TGI (UO-31 renal) was 50.6 µM and the TGI (HOP-62 NSCLC) was 43.3 µM. The TGI (SK-OV-3 ovarian) was 68.7 µM, the TGI (EKVX NSCLC) was > 100 µM and the TGI (DMS 273 small cell lung) was 42.5 µM. For the same compound, the TGI (TK-10 renal) was > 100 µM, the TGI (SF-295 CNS) was 39.2 µM and the TGI (HCT-15 colon) was 36.7 µM. The TGI (786-0 renal) was 69.6 µM, the TGI (SK-MEL-2 melanoma) was 47.7 µM and the TGI (M14 melanoma) was 37.7 µM. The TGI (OVCAR-8 ovarian) was > 100 µM, the TGI (MOLT-4 leukemia) was 83.5 µM and the TGI (K-562 leukemia) was 79.5 µM. For the same compound, the TGI (COLO 205 colon) was 27.8 µM, the TGI (LOX IMVI melanoma) was 41.6 µM and the TGI (NCI-H522 lung) was 29.5 µM. The TGI (A549 NSCLC) was > 100 µM, the TGI (OVCAR-3 ovarian) was > 100 µM and the TGI (HCT-116 colon) was 57.9 µM. For the same compound, the TGI (SK-MEL-5 melanoma) was 30.7 µM, the TGI (HT29 colon) was 38.3 µM and the TGI (UACC-257 melanoma) was 24.1 µM. The TGI (RPMI-8226 leukemia) was 60.2 µM, the TGI (NCI-H226 lung) was 44 µM and the TGI (SF-539 CNS) was 37.5 µM. It also gave a TGI (HL-60(TB) leukemia) of 55.6 µM, a TGI (KM12 colon) of 27.8 µM and a TGI (SNB-75 CNS) of 35.6 µM. It also gave a TGI (UACC-62 melanoma) of 17.9 µM, a TGI (HOP-18 NSCLC) of 35.1 µM and a TGI (DMS 114 small cell lung) of 41.2 µM. For the same compound, the TGI (MALME-3M melanoma) was 25 µM.
In the case of `NC(N)=N/N=C/c1oc(-c2ccc(S(=O)(=O)O)o2)c(-c2ccc(S(=O)(=O)O)o2)c1[N+](=O)[O-]`, the TGI (ACHN renal) is reported as > 100 µM, the TGI (NCI-H460 lung) is reported as > 100 µM and the TGI (CCRF-CEM leukemia) is reported as > 100 µM. The TGI (U251 CNS) was > 100 µM, the TGI (DLD-1 colon) was > 100 µM and the TGI (RXF 393 renal) was > 100 µM. For the same compound, the TGI (KM20L2 colon) was > 100 µM, the TGI (SK-MEL-28 melanoma) was > 100 µM and the TGI (HCC-2998 colon) was > 100 µM. The TGI (IGROV1 ovarian) was > 100 µM, the TGI (SN12C renal) was > 100 µM and the TGI (M19-MEL melanoma) was > 100 µM. The TGI (NCI-H23 lung) was > 100 µM, the TGI (SW-620 colon) was > 100 µM and the TGI (UO-31 renal) was > 100 µM. For the same compound, the TGI (HOP-62 NSCLC) was > 100 µM, the TGI (SK-OV-3 ovarian) was > 100 µM and the TGI (EKVX NSCLC) was > 100 µM. The TGI (SNB-19 CNS) was > 100 µM, the TGI (DMS 273 small cell lung) was > 100 µM and the TGI (TK-10 renal) was > 100 µM. The TGI (SF-295 CNS) was > 100 µM, the TGI (HCT-15 colon) was > 100 µM and the TGI (786-0 renal) was > 100 µM. The TGI (SK-MEL-2 melanoma) was > 100 µM, the TGI (SR leukemia) was > 100 µM and the TGI (M14 melanoma) was > 100 µM. For the same compound, the TGI (OVCAR-8 ovarian) was > 100 µM, the TGI (OVCAR-5 ovarian) was > 100 µM and the TGI (MOLT-4 leukemia) was > 100 µM. For the same compound, the TGI (K-562 leukemia) was > 100 µM, the TGI (CAKI-1 renal) was > 100 µM and the TGI (HOP-92 NSCLC) was > 100 µM. The TGI (COLO 205 colon) was > 100 µM, the TGI (LOX IMVI melanoma) was > 100 µM and the TGI (NCI-H522 lung) was > 100 µM. For the same compound, the TGI (A498 renal) was > 100 µM, the TGI (A549 NSCLC) was > 100 µM and the TGI (OVCAR-3 ovarian) was > 100 µM. The TGI (HCT-116 colon) was > 100 µM, the TGI (LXFL 529 NSCLC) was > 100 µM and the TGI (SK-MEL-5 melanoma) was > 100 µM. For the same compound, the TGI (HT29 colon) was > 100 µM, the TGI (UACC-257 melanoma) was > 100 µM and the TGI (SF-268 CNS) was > 100 µM. The TGI (NCI-H226 lung) was > 100 µM, the TGI (SF-539 CNS) was > 100 µM and the TGI (HL-60(TB) leukemia) was > 100 µM. The TGI (OVCAR-4 ovarian) was > 100 µM, the TGI (KM12 colon) was > 100 µM and the TGI (SNB-75 CNS) was > 100 µM. For the same compound, the TGI (UACC-62 melanoma) was > 100 µM, the TGI (HOP-18 NSCLC) was > 100 µM and the TGI (DMS 114 small cell lung) was > 100 µM. The TGI (MALME-3M melanoma) was > 100 µM.
